Holding throughout (assay type): in vivo
The test system of experiment [1] is Setaria faberi (SETFA). As to the kind of experiment: Pre-emergence Test, Setaria faberi (SETFA). Conditions: 1000 g/ha, evaluated after 13 days.
For experiment [2], the system named is Echinochloa crus-galli (ECHCG). Kind of experiment: Pre-emergence Test, Echinochloa crus-galli (ECHCG). The conditions noted are these: 1000 g/ha, evaluated after 13 days.
In experiment [3] the test system is Zea mays (ZEAMX). As to the kind of experiment: Pre-emergence Test, Zea mays (ZEAMX). Conditions: 1000 g/ha, evaluated after 13 days.
Experiment [4] concerns Ipomoea hederacea (IPOHE). Kind of experiment: Pre-emergence Test, Ipomoea hederacea (IPOHE). The conditions noted are these: 1000 g/ha, evaluated after 13 days.
The test system of experiment [5] is Amaranthus palmeri (AMAPA). Kind of experiment: Pre-emergence Test, Amaranthus palmeri (AMAPA). The conditions noted are these: 1000 g/ha, evaluated after 13 days.
For experiment [6], the system named is Amaranthus retoflexus (AMARE). As to the kind of experiment: Pre-emergence Test, Amaranthus retoflexus (AMARE). Conditions: 1000 g/ha, evaluated after 13 days.
Experiment [7] deals with Setaria faberi (SETFA). As to the kind of experiment: Post-emergence Test, Setaria faberi (SETFA). More on the design: key to percentage damage caused to the plant, SETFA (five-point scale): 5=81-100%, 4=61-80%, 3=41-60%, 2=21-40%, 1=0-20% damage. The conditions noted are these: evaluated after 13 days. In a few lines:
(§1)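 Percent plant damage was rated 13 days post-application on a 1–5 scale (1=0-20%, 5=81-100%). Application used an aqueous acetone (50:50)/0.5% Tween 20 spray, normally 1000 g/ha, with controlled glasshouse conditions (24/16 °C, 14 h light, 65% humidity).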

The test system of experiment [8] is Echinochloa crus-galli (ECHCG). Kind of experiment: Post-emergence Test, Echinochloa crus-galli (ECHCG). Conditions: evaluated after 13 days. More on the design: key to percentage damage caused to the plant, ECHCG (five-point scale): 5=81-100%, 4=61-80%, 3=41-60%, 2=21-40%, 1=0-20% damage. In a few lines: as §1
For experiment [9], the system named is Zea mays (ZEAMX). Kind of experiment: Post-emergence Test, Zea mays (ZEAMX). More on the design: key to percentage damage caused to the plant, ZEAMX (five-point scale): 5=81-100%, 4=61-80%, 3=41-60%, 2=21-40%, 1=0-20% damage. Conditions: evaluated after 13 days. In a few lines: as §1
For experiment [10], the system named is Ipomoea hederacea (IPOHE). Kind of experiment: Post-emergence Test, Ipomoea hederacea (IPOHE). The conditions noted are these: evaluated after 13 days. More on the design: key to percentage damage caused to the plant, IPOHE (five-point scale): 5=81-100%, 4=61-80%, 3=41-60%, 2=21-40%, 1=0-20% damage. In a few lines:
as §1

Experiment [11] has as its system Amaranthus palmeri (AMAPA). Kind of experiment: Post-emergence Test, Amaranthus palmeri (AMAPA). The arrangement: key: 5=81-100%, 4=61-80%, 3=41-60%, 2=21-40%, 1=0-20% damage. The conditions noted are these: evaluated after 13 days. In short, it runs like this:
as §1

Experiment [12] deals with Amaranthus retoflexus (AMARE). As to the kind of experiment: Post-emergence Test, Amaranthus retoflexus (AMARE). The arrangement: key to percentage damage caused to the plant, AMARE (five-point scale): 5=81-100%, 4=61-80%, 3=41-60%, 2=21-40%, 1=0-20% damage. The conditions noted are these: evaluated after 13 days. In a few lines: as §1

Molecules are shown by their SMILES.

Take `CCn1c(Cn2ncc3cc(F)ccc32)cc(=O)c(C(=O)O)c1-c1ccc(Cl)c(Cl)c1` [Compound 102, 2-(3,4-dichlorophenyl)-1-ethyl-6-[(5-fluoroindazol-1-yl)methyl]-4-oxo-pyridine-3-carboxylic acid]: the “Pre-emergence Test SETFA, percentage damage caused to the plant (five-point scale)” value in [1] was 1 (1=0-20%). Also, the “Pre-emergence Test ECHCG, percentage damage caused to the plant (five-point scale)” value in experiment [2] is 1 (1=0-20%). Further, in experiment [3], the “Pre-emergence Test ZEAMX, percentage damage caused to the plant (five-point scale)” value is on record as 0. Further, in experiment [4], the “Pre-emergence Test IPOHE, percentage damage caused to the plant (five-point scale)” value is recorded as 3 (3=41-60%). The “Pre-emergence Test AMAPA, percentage damage caused to the plant (five-point scale)” value in experiment [5] was 1 (1=0-20%). Moreover, in [6], the “Pre-emergence Test AMARE, percentage damage caused to the plant (five-point scale)” value is listed as 1 (1=0-20%). The “percentage damage caused to the plant, SETFA (five-point scale)” value in experiment [7] (250 g/Ha) is 1 (1=0-20%); in experiment [7] (1000 g/ha) it was 2 (2=21-40%). Moreover, the “percentage damage caused to the plant, ECHCG (five-point scale)” value in [8] (250 g/Ha) and in experiment [8] (1000 g/ha) was 3 (3=41-60%) throughout. The “percentage damage caused to the plant, ZEAMX (five-point scale)” value in experiment [9] (250 g/Ha) is given as 1 (1=0-20%); in experiment [9] (1000 g/ha) it was 0. Besides, the “percentage damage caused to the plant, IPOHE (five-point scale)” value is recorded as 1 (1=0-20%) in [10] (250 g/Ha) and 3 (3=41-60%) in experiment [10] (1000 g/ha). Moreover, the “percentage damage caused to the plant, AMAPA (five-point scale)” value is 2 (2=21-40%) in experiment [11] (250 g/Ha) and 4 (4=61-80%) in experiment [11] (1000 g/ha). Besides, the “percentage damage caused to the plant, AMARE (five-point scale)” value in experiment [12] (250 g/Ha) was 1 (1=0-20%); in [12] (1000 g/ha) it was 4 (4=61-80%).

On to `CCn1c(Cn2cc(C(F)(F)F)nc2C)cc(=O)c(C(=O)O)c1-c1ccc(Cl)c(Cl)c1` [Compound 103, 2-(3,4-dichlorophenyl)-1-ethyl-6-[[2-methyl-4-(trifluoromethyl)imidazol-1-yl]methyl]-4-oxo-pyridine-3-carboxylic acid], for which the “Pre-emergence Test SETFA, percentage damage caused to the plant (five-point scale)” value in [1] is reported as 1 (1=0-20%). Also, the “Pre-emergence Test ECHCG, percentage damage caused to the plant (five-point scale)” value in [2] is reported as 1 (1=0-20%). Further, the “Pre-emergence Test ZEAMX, percentage damage caused to the plant (five-point scale)” value in experiment [3] stood at 0. Besides, in [4], the “Pre-emergence Test IPOHE, percentage damage caused to the plant (five-point scale)” value is 0. Also, the “Pre-emergence Test AMAPA, percentage damage caused to the plant (five-point scale)” value in experiment [5] is recorded as 2 (2=21-40%). In addition, the “Pre-emergence Test AMARE, percentage damage caused to the plant (five-point scale)” value in [6] is 1 (1=0-20%). Besides, the “percentage damage caused to the plant, SETFA (five-point scale)” value in experiment [7] (1000 g/ha) is on record as 1 (1=0-20%). The “percentage damage caused to the plant, ECHCG (five-point scale)” value in experiment [8] (1000 g/ha) is listed as 1 (1=0-20%). Besides, the “percentage damage caused to the plant, ZEAMX (five-point scale)” value in [9] (1000 g/ha) is recorded as 1 (1=0-20%). The “percentage damage caused to the plant, IPOHE (five-point scale)” value in experiment [10] (1000 g/ha) is recorded as 0. Also, the “percentage damage caused to the plant, AMAPA (five-point scale)” value in experiment [11] (1000 g/ha) was 1 (1=0-20%). In experiment [12] (1000 g/ha), the “percentage damage caused to the plant, AMARE (five-point scale)” value is 1 (1=0-20%).

The values are drawn from patent publication US20250098679A1, “HERBICIDAL PYRIDONE DERIVATIVES” (SYNGENTA CROP PROTECTION AG, priority 2021, published 2025).
